As a reminder, the IC50 is the concentration needed to halve the response being measured.

Consider 28 compounds from US20230192677A1, “CYP11A1 INHIBITORS” (ORION CORPORATION, priority 2020, published 2023).

The target of this assay is T1, CYP11A1 (Homo sapiens, UniProt P05108).
T1 construct: human H295R adrenocortical carcinoma cell line was used as source of enzyme; endogenous in cells; host or cells: H295R human adrenocortical carcinoma cells
T1 sequence (P05108 40-521): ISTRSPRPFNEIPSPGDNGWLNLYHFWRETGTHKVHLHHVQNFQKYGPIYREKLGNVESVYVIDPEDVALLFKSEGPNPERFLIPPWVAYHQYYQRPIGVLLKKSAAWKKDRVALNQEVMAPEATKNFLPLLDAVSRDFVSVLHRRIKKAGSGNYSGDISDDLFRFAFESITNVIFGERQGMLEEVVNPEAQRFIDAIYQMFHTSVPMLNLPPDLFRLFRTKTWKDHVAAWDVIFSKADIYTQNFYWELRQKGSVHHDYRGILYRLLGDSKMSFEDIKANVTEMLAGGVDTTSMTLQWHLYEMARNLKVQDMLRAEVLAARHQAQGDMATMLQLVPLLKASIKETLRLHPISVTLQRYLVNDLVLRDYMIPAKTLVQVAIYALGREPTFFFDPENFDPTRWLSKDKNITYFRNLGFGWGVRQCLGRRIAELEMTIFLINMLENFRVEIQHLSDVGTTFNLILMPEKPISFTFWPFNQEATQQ
Briefly: CYP11A1 inhibition, isocaproic acid release assay (IARA) in H295R cells. The assay is classed as cell-based. Conditions: human H295R adrenocortical carcinoma cell line, three days, 3 nM [24,25-3H]-labelled cholesterol; read-out: IC50 on CYP11A1 inhibition (Group). The method, then:
The ability of the test compounds to inhibit conversion of cholesterol to pregnenolone and isocaproic acid was measured by modification of isocaproic acid release assay (IARA) described by Ruangwises et al. (Biology of Reproduction 1991; 45(1):143-50) except that human H295R adrenocortical carcinoma cell line was used as source of enzyme and extraction was done with dextran-coated charcoal suspension (Isomaa, V. et al., Endocrinology 1982; 111(3):833-843). […] To determine the half maximal inhibitory concentration (IC50) of the test compounds on CYP11A1 inhibition, the cells were treated for three days with increasing concentrations of the test compounds in the presence of 3 nM [24,25-3H]-labelled cholesterol (American Radiolabelled Chemicals). The final DMSO concentration was 1%. Cell culture medium was extracted with dextran-coated charcoal suspension and the radiolabelled isocaproic acid was determined by mixing 100 μl of supernatant fraction in 200 μl of scintillation fluid (OptiPhase SuperMix, Perkin Elmer). Radioactivity was measured using a Microbeta scintillation counter (1450 MicroBeta Trilux, Wallac). All the test compounds were studied at 10 concentrations in duplicates.

Molecules are shown by their SMILES.

Take `CS(=O)(=O)N1CC2(CC(COc3coc(CN4CCc5ccccc5C4)cc3=O)C2)C1` [Compound 62, 2-((3,4-Dihydroisoquinolin-2(1H)-yl)methyl)-5-((2-(methylsulfonyl)-2-azaspiro[3.3]heptan-6-yl)methoxy)-4H-pyran-4-one]: the IC50 was 201 to 2000 nM.

`CC(=O)[C@H]1CC[C@H](COc2ccc(CN3Cc4ccccc4C3)cc2S(C)(=O)=O)CC1` [Compound 67, 1-((1r,4r)-4-((4-(Isoindolin-2-ylmethyl)-2-(methylsulfonyl)phenoxy)methyl)-cyclohexyl)ethan-1-one]: the 50% inhibitory concentration (IC50) was below 100 nM.

Regarding `O=c1cc(CN2CCc3ccccc3C2)occ1OCC1CC2(C1)CN(S(=O)(=O)c1ccc(F)cc1)C2` [Compound 58, 2-((3,4-Dihydroisoquinolin-2(1H)-yl)methyl)-5-((2-((4-fluorophenyl)sulfonyl)-2-azaspiro[3.3]heptan-6-yl)methoxy)-4H-pyran-4-one], the IC50 was 101 to 200 nM.

With `O=c1cc(CN2CCc3ccccc3C2)occ1OC1CC2(CCN(S(=O)(=O)c3cccnc3)CC2)C1` [Compound 54, 2-((3,4-Dihydroisoquinolin-2(1H)-yl)methyl)-5-((7-(pyridin-3-ylsulfonyl)-7-azaspiro[3.5]nonan-2-yl)oxy)-4H-pyran-4-one], the IC50 was in the range of 201 to 2000 nM.

Consider `CCS(=N)(=O)c1ccc(COc2ccc(CN3Cc4ccccc4C3)cc2S(C)(=O)=O)cc1` (stereo not shown) [Compound 71, Ethyl(imino)(4-((4-(isoindolin-2-ylmethyl)-2-(methylsulfonyl)phenoxy)methyl)-phenyl)-λ^6-sulfanone], for which the concentration for half-maximal inhibition (IC50) was below 100 nM.

With `CS(=O)(=O)N1CCC(COc2coc(CN3Cc4ccc(-c5nncs5)cc4C3)cc2=O)CC1` [Compound 6, 2-((5-(1,3,4-Thiadiazol-2-yl)isoindolin-2-yl)methyl)-5-((1-(methylsulfonyl)-piperidin-4-yl)methoxy)-4H-pyran-4-one], the half-maximal inhibitory concentration (IC50) lay in the range of 101 to 200 nM.

Take `CS(=N)(=O)c1ccc(COc2ccc(CN3Cc4ccc(C(F)(F)F)cc4C3)cc2S(C)(=O)=O)cc1` (stereo not shown) [Compound 85, Imino(methyl)(4-((2-(methylsulfonyl)-4-((5-(trifluoromethyl)isoindolin-2-yl)methyl)phenoxy)methyl)phenyl)-λ^6-sulfanone]: the IC50 is below 100 nM.

For `CS(=O)(=O)N1CCC(COc2ccc(CN3Cc4ccccc4C3)cc2S(=O)(=O)C2CC2)CC1` [Compound 26, 2-(3-(Cyclopropylsulfonyl)-4-((1-(methylsulfonyl)piperidin-4-yl)methoxy)-benzyl)isoindoline], the half-inhibitory concentration (IC50) lay within 101 to 200 nM.

Consider `COCCN(C)C(=O)c1ccc(COc2ccc(CN3Cc4ccccc4C3)cc2S(C)(=O)=O)cc1` [Compound 69, 4-((4-(Isoindolin-2-ylmethyl)-2-(methylsulfonyl)phenoxy)methyl)-N-(2-methoxyethyl)-N-methylbenzamide], for which the IC50 was below 100 nM.

Consider `CS(=O)(=O)c1cc(CN2Cc3ccccc3C2)ccc1OCc1ccc([S@@](C)(=N)=O)cc1` [Compound 96, (S)-Imino(4-((4-(isoindolin-2-ylmethyl)-2-(methylsulfonyl)phenoxy)methyl)-phenyl)(methyl)-λ^6-sulfanone], for which the half-maximal inhibitory concentration (IC50) was below 100 nM.

In the case of `CS(=O)(=O)c1cc(CN2Cc3cccc(F)c3C2)ccc1OCC1CCN(S(C)(=O)=O)CC1` [Compound 105, 4-Fluoro-2-(3-(methylsulfonyl)-4-((1-(methylsulfonyl)piperidin-4-yl)methoxy)-benzyl)isoindoline], the IC50 is below 100 nM.

For `CS(=O)(=O)c1cc(CN2Cc3ccccc3C2)ccc1OCC1CCOCC1` [Compound 83, 2-(3-(Methylsulfonyl)-4-((tetrahydro-2H-pyran-4-yl)methoxy)benzyl)isoindoline], the IC50 was 201 to 2000 nM.

As for `CS(=N)(=O)c1ccc(COc2ccc(CN3Cc4ccccc4C3)cc2S(C)(=O)=O)cc1` (stereo not shown) [Compound 72, Imino(4-((4-(isoindolin-2-ylmethyl)-2-(methylsulfonyl)phenoxy)methyl)phenyl)(methyl)-λ^6-sulfanone], the half-maximal inhibitory concentration (IC50) was below 100 nM.

On to `CC(O)c1ccc(COc2ccc(CN3Cc4ccccc4C3)cc2S(C)(=O)=O)cc1` (stereo not shown) [Compound 92b, 1-(4-((4-(Isoindolin-2-ylmethyl)-2-(methylsulfonyl)phenoxy)methyl)phenyl)-ethanol], for which the IC50 was below 100 nM.

For `CO/N=C(\C)c1ccc2c(c1)CN(Cc1cc(=O)c(OCC3CCN(S(C)(=O)=O)CC3)co1)C2` [Compound 91, (E)-2-((5-(1-(Methoxyimino)ethyl)isoindolin-2-yl)methyl)-5-((1-(methylsulfonyl)piperidin-4-yl)methoxy)-4H-pyran-4-one], the concentration for half-maximal inhibition (IC50) lay in the range of 101 to 200 nM.

On to `CN(C)C(=O)c1ccc(COc2ccc(CN3Cc4ccccc4C3)cc2S(C)(=O)=O)cc1` [Compound 68, 4-((4-(Isoindolin-2-ylmethyl)-2-(methylsulfonyl)phenoxy)methyl)-N,N-dimethylbenzamide], for which the IC50 was below 100 nM.

As to `CS(=O)(=O)c1cc(CN2Cc3ccc(-c4cncs4)cc3C2)ccc1OCC1CCN(S(C)(=O)=O)CC1` [Compound 14, 5-(2-(3-(Methylsulfonyl)-4-((1-(methylsulfonyl)piperidin-4-yl)methoxy)benzyl)-isoindolin-5-yl)thiazole], the IC50 was below 100 nM.

In the case of `CC(=O)N1CCC(COc2ccc(CN3Cc4ccccc4C3)cc2S(C)(=O)=O)CC1` [Compound 87, 1-(4-((4-(Isoindolin-2-ylmethyl)-2-(methylsulfonyl)phenoxy)methyl)piperidin-1-yl)ethan-1-one], the IC50 lay within 201 to 2000 nM.

`CS(=N)c1ccc(COc2ccc(CN3Cc4ccccc4C3)cc2S(C)(=O)=O)cc1` (stereo not shown) [Compound 84, (4-((4-(Isoindolin-2-ylmethyl)-2-(methylsulfonyl)phenoxy)methyl)phenyl)-(methyl)-λ^4-sulfanimine]: the IC50 is below 100 nM.

For `CC(C)(O)c1ccc(COc2ccc(CN3Cc4ccccc4C3)cc2S(C)(=O)=O)cc1` [Compound 86, 2-(4-((4-(Isoindolin-2-ylmethyl)-2-(methylsulfonyl)phenoxy)methyl)phenyl)-propan-2-ol], the half-maximal inhibitory concentration (IC50) was below 100 nM.

Consider `CC(C)(C)OC(=O)N1CCC2(CC1)CC(Oc1coc(CN3CCc4ccccc4C3)cc1=O)C2` [Compound 32, tert-Butyl 2-((6-((3,4-dihydroisoquinolin-2(1H)-yl)methyl)-4-oxo-4H-pyran-3-yl)oxy)-7-azaspiro[3.5]nonane-7-carboxylate], for which the 50% inhibitory concentration (IC50) was in the range of 101 to 200 nM.

In the case of `CC(O)C1CCC(COc2ccc(CN3Cc4ccccc4C3)cc2S(C)(=O)=O)CC1` (stereo not shown) [Compound 94, 1-(4-((4-(Isoindolin-2-ylmethyl)-2-(methylsulfonyl)phenoxy)methyl)cyclohexyl)ethan-1-ol], the concentration for half-maximal inhibition (IC50) is 201 to 2000 nM.

Consider `CS(=O)(=O)N1CCC(COc2coc(CN3Cc4ccccc4C4(CC4)C3)cc2=O)CC1` [Compound 103, 2-((1′H-Spiro[cyclopropane-1,4′-isoquinolin]-2′(3′H)-yl)methyl)-5-((1-(methyl-sulfonyl)piperidin-4-yl)methoxy)-4H-pyran-4-one], for which the IC50 was 201 to 2000 nM.

Regarding `CN(C)C(=O)C1CCC(COc2ccc(CN3Cc4ccccc4C3)cc2S(C)(=O)=O)CC1` (stereo not shown) [Compound 74, 4-((4-(Isoindolin-2-ylmethyl)-2-(methylsulfonyl)phenoxy)methyl)-N,N-dimethylcyclohexane-1-carboxamide], the 50% inhibitory concentration (IC50) is below 100 nM.

As for `CS(=O)(=O)c1cc(CN2Cc3ccccc3C2)ccc1OCc1ccc([S@](C)(=N)=O)cc1` [Compound 95, (R)-Imino(4-((4-(isoindolin-2-ylmethyl)-2-(methylsulfonyl)phenoxy)methyl)-phenyl)(methyl)-λ^6-sulfanone], the half-inhibitory concentration (IC50) lay in the range of 101 to 200 nM.

For `O=c1cc(CN2CCc3ccccc3C2)occ1OCC1CC2(CCN(c3ncccn3)CC2)C1` [Compound 48, 2-((3,4-Dihydroisoquinolin-2(1H)-yl)methyl)-5-((7-(pyrimidin-2-yl)-7-azaspiro-[3.5]nonan-2-yl)methoxy)-4H-pyran-4-one], the half-maximal inhibitory concentration (IC50) fell in the range of 101 to 200 nM.

As for `CS(=O)(=O)c1cc(CN2Cc3ccccc3C2)ccc1OCc1ccc(S(=O)(=O)N2CC(O)C2)cc1` [Compound 77, 1-((4-((4-(Isoindolin-2-ylmethyl)-2-(methylsulfonyl)phenoxy)methyl)phenyl)-sulfonyl)azetidin-3-ol], the IC50 was below 100 nM.

Take `CC[S@@](=N)(=O)c1ccc(COc2ccc(CN3Cc4ccccc4C3)cc2S(C)(=O)=O)cc1` [Compound 98, (R)-Ethyl(imino)(4-((4-(isoindolin-2-ylmethyl)-2-(methylsulfonyl)phenoxy)-methyl)phenyl)-λ^6-sulfanone]: the IC50 was below 100 nM.
